Assay results from patent US20240270821A1, “GIP/GLP1/GCG TRI-RECEPTOR AGONISTS AND USES THEREOF” (priority 2023, published 2024).
Where two headings read alike, the source gives them in different places. Starred links: 1 amine or outer side, 2 acyl side, 3 side chain; linkers in the order of their positions; H or OH if unused. Non-standard residues stand in square brackets, D forms with d. Residues, ends and D or L forms follow the SMILES beside them. Groups on a side chain read outwards from the residue. *: point of attachment. C20 diacid = O=C(O)CCCCCCCCCCCCCCCCCCC(=O)*; C18 diacid = O=C(O)CCCCCCCCCCCCCCCCC(=O)*; αMePhe(2-F) = C[C@](N)(Cc1ccccc1F)C(=O)O; γGlu = O=C(O)[C@H](CCC(=O)[*:2])N[*:1]; αMeY = C[C@](N)(Cc1ccc(O)cc1)C(=O)O; αMeF = C[C@](N)(Cc1ccccc1)C(=O)O; αMeL = CC(C)C[C@](C)(N)C(=O)O; αMeS = C[C@](N)(CO)C(=O)O; Orn = NCCC[C@H](N)C(=O)O; AEEA = NCCOCCOCC(=O)O; Aib = CC(C)(N)C(=O)O

Experiments:
Assay type in all cases: cell-based
hGLP-1R [1] = biological target: T1, hGLP-1R (Homo sapiens, UniProt P43220); experiment: Functional cAMP activation in the presence of 0.1% casein (no HSA); conditions: read-out: Relative cAMP EC50, hGLP-1R;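 also: intracellular cAMP rise after 30 min at 37 °C read by HTRF, normalized between buffer only (0%) and maximal control ligand (100%), four-parameter variable-slope fit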
T1 sequence (P43220 24-463): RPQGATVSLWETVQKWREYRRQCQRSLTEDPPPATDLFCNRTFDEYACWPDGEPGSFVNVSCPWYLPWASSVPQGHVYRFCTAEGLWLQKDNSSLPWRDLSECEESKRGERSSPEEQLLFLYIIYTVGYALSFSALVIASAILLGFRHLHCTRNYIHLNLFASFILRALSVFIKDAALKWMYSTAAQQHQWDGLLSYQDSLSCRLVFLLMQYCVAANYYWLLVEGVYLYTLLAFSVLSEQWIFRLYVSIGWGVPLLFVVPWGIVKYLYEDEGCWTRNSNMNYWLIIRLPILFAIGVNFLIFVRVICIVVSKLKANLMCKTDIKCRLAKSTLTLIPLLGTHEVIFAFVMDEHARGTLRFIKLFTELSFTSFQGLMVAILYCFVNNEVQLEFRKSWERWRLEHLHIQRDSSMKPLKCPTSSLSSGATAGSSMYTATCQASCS

hGIPR [2] = biological target: T2, hGIPR (Homo sapiens, UniProt P48546); experiment: as above; conditions: read-out: Relative cAMP EC50, hGIPR;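 also: intracellular cAMP rise after 30 min at 37 °C read by HTRF against a standard curve, scaled between buffer alone (0%) and top control ligand concentration (100%), four-parameter fit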
T2 sequence (P48546 22-466): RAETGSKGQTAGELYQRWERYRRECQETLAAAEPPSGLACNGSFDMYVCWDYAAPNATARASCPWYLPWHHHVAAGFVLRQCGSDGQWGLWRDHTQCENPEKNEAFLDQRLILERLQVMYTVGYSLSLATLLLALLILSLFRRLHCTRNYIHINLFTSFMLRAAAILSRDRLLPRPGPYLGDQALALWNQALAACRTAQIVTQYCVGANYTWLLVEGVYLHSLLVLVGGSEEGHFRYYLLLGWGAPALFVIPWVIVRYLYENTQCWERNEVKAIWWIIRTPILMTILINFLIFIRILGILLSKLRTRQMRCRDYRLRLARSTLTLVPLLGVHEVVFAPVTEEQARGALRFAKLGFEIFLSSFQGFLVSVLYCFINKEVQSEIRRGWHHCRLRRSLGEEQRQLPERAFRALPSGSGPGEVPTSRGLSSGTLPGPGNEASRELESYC

human GcgR = human GcgR (Homo sapiens, UniProt P47871); experiment: Functional cAMP activity in the presence of 1% HSA; conditions: read-out: cAMP Rel EC50, hGcgR
Chain of human GcgR (P47871 26-477): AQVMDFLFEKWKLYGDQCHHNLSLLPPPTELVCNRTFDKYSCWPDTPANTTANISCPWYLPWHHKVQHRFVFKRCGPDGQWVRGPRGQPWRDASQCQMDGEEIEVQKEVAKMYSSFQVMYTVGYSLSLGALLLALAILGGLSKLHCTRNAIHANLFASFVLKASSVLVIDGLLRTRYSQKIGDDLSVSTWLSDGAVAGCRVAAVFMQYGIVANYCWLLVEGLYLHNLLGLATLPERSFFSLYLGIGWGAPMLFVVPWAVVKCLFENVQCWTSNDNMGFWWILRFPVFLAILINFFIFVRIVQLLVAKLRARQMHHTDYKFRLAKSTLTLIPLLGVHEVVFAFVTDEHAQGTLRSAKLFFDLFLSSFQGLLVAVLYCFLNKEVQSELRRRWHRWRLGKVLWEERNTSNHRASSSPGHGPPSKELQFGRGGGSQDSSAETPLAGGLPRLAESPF

hGLP-1R [3] = biological target: T1, hGLP-1R; experiment: Functional cAMP activity in the presence of 1% HSA; conditions: read-out: cAMP Rel EC50, hGLP-1R
hGIPR [4] = biological target: T2, hGIPR; experiment: Functional cAMP activity in the presence of 1% HSA; conditions: read-out: cAMP Rel EC50, hGIPR
hGcgR = hGcgR (Homo sapiens, UniProt P47871); experiment: Functional cAMP activation in the presence of 0.1% casein (no HSA); conditions: read-out: Relative cAMP EC50, hGcgR;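 also: intracellular cAMP rise after 30 min at 37 °C, read by HTRF against a cAMP standard curve, scaled from buffer only (0%) to maximal control ligand response (100%)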
Chain of hGcgR (P47871 26-477): as above

[5] = in the presence of 0.1% casein (no HSA), geometric mean

| Structure (SMILES) | EC50 (human GcgR) [nM] | EC50 (hGLP-1R [3]) [nM] | EC50 (hGIPR [4]) [nM] | EC50 (hGLP-1R [1]) [nM] | EC50 (hGIPR [2]) [nM] | EC50 (hGcgR) [nM] | EC50 (hGLP-1R [1]; [5]) [nM] | EC50 (hGIPR [2]; [5]) [nM] | EC50 (hGcgR; [5]) [nM] |
| --- | --- | --- | --- | --- | --- | --- | --- | --- | --- |
| CC[C@H](C)[C@H](NC(=O)[C@H](Cc1ccccc1)NC(=O)[C@H](C)NC(=O)C(C)(C)NC(=O)[C@H](CCC(N)=O)NC(=O)[C@H](C)NC(=O)[C@H](CCCCNC(=O)COCCOCCNC(=O)COCCOCCNC(=O)CC[C@H](NC(=O)CCCCCCCCCCCCCCCCCCC(=O)O)C(=O)O)NC(=O)[C@H](CCCCN)NC(=O)[C@H](CC(=O)O)NC(=O)[C@H](CC(C)C)NC(=O)[C@H](CC(C)C)NC(=O)[C@@H](NC(=O)[C@H](CO)NC(=O)[C@H](Cc1ccc(O)cc1)NC(=O)[C@H](CC(=O)O)NC(=O)[C@H](CO)NC(=O)[C@@H](NC(=O)[C@](C)(Cc1ccccc1F)NC(=O)[C@@H](NC(=O)CNC(=O)[C@H](CCC(N)=O)NC(=O)C(C)(C)NC(=O)[C@@H](N)Cc1ccc(O)cc1)[C@@H](C)O)[C@@H](C)O)[C@@H](C)CC)C(=O)N[C@@H](CCC(=O)O)C(=O)N[C@@H](Cc1ccc(O)cc1)C(=O)N[C@@H](CC(C)C)C(=O)N[C@@H](CC(C)C)C(=O)N[C@@H](CCC(=O)O)C(=O)NCC(=O)NCC(=O)N1CCC[C@H]1C(=O)N[C@@H](CO)C(=O)N[C@@H](CO)C(=O)NCC(=O)N[C@@H](C)C(=O)N1CCC[C@H]1C(=O)N1CCC[C@H]1C(=O)N1CCC[C@H]1C(=O)N[C@@H](CO)C(N)=O [Example 385] | 700 | 86.1 | 4.03 |  |  |  | 0.235 | 0.0141 | 1 |
| CC[C@H](C)[C@H](NC(=O)[C@H](Cc1ccccc1)NC(=O)[C@H](C)NC(=O)C(C)(C)NC(=O)[C@H](CCC(N)=O)NC(=O)[C@H](C)NC(=O)[C@H](CCCCNC(=O)COCCOCCNC(=O)COCCOCCNC(=O)CC[C@H](NC(=O)CCCCCCCCCCCCCCCCCCC(=O)O)C(=O)O)NC(=O)[C@H](CCCCN)NC(=O)[C@H](CC(=O)O)NC(=O)[C@H](CC(C)C)NC(=O)[C@H](CC(C)C)NC(=O)[C@@H](NC(=O)[C@H](CO)NC(=O)[C@H](Cc1ccc(O)cc1)NC(=O)[C@H](CC(=O)O)NC(=O)[C@H](CO)NC(=O)[C@@H](NC(=O)[C@](C)(Cc1ccccc1F)NC(=O)[C@@H](NC(=O)CNC(=O)[C@H](CCC(N)=O)NC(=O)C(C)(C)NC(=O)[C@@H](N)Cc1ccc(O)cc1)[C@@H](C)O)[C@@H](C)O)[C@@H](C)CC)C(=O)N[C@@H](CCC(=O)O)C(=O)N[C@@H](Cc1ccc(O)cc1)C(=O)N[C@@H](CC(C)C)C(=O)N[C@@H](CC(C)C)C(=O)N[C@@H](CCC(=O)O)C(=O)NCC(=O)NCC(=O)N1CCC[C@H]1C(=O)N[C@@H](CO)C(=O)N[C@@H](CO)C(=O)NCC(=O)N[C@@H](C)C(=O)N1CCC[C@H]1C(=O)N1CCC[C@H]1C(=O)N1CCC[C@H]1C(=O)N[C@@H](CCC(=O)O)C(N)=O [Example 386] (H-Y[Aib]QGT[αMePhe(2-F)]TSDYSILLDKK([AEEA-AEEA-γGlu-C20 diacid])AQ[Aib]AFIEYLLEGGPSSGAPPPE-NH2) | 734 | 98.6 | 5.62 |  |  |  | 0.278 | 0.0156 | 1.7 |
| CC[C@H](C)[C@H](NC(=O)[C@H](Cc1ccccc1)NC(=O)[C@H](CCCN)NC(=O)C(C)(C)NC(=O)[C@H](CCC(N)=O)NC(=O)[C@H](C)NC(=O)[C@H](CCCCNC(=O)COCCOCCNC(=O)CC[C@H](NC(=O)CCCCCCCCCCCCCCCCC(=O)O)C(=O)O)NC(=O)[C@H](CCCN)NC(=O)[C@H](CC(=O)O)NC(=O)[C@H](CC(C)C)NC(=O)[C@](C)(CC(C)C)NC(=O)[C@H](CO)NC(=O)[C@](C)(CO)NC(=O)[C@H](Cc1ccc(O)cc1)NC(=O)[C@H](CC(=O)O)NC(=O)[C@H](CO)NC(=O)[C@@H](NC(=O)[C@](C)(Cc1ccccc1)NC(=O)[C@@H](NC(=O)CNC(=O)[C@H](CCC(N)=O)NC(=O)C(C)(C)NC(=O)[C@@H](N)Cc1ccc(O)cc1)[C@@H](C)O)[C@@H](C)O)C(=O)N[C@H](CCC(=O)O)C(=O)N[C@@](C)(Cc1ccc(O)cc1)C(=O)N[C@@H](CC(C)C)C(=O)N[C@@H](CC(C)C)C(=O)N[C@@H](CCC(=O)O)C(=O)NCC(=O)NCC(=O)N1CCC[C@H]1C(=O)N[C@@H](CO)C(=O)N[C@@H](CO)C(=O)NCC(=O)N[C@@H](CCC(=O)O)C(=O)N1CCC[C@H]1C(=O)N1CCC[C@H]1C(=O)N1CCC[C@H]1C(=O)N[C@@H](CCC(=O)O)C(N)=O [Example 389] (H-Y[Aib]QGT[αMeF]TSDY[αMeS]S[αMeL]LD[Orn]K([AEEA-γGlu-C18 diacid])AQ[Aib][Orn]FI[dE][αMeY]LLEGGPSSGEPPPE-NH2) | 889 | 18.9 | 18.3 |  |  |  | 0.134 | 0.0354 | 4.03 |

The next lines start with results.

| EC50 (human GcgR) [nM] | EC50 (hGLP-1R [3]) [nM] | EC50 (hGIPR [4]) [nM] | EC50 (hGLP-1R [1]) [nM] | EC50 (hGIPR [2]) [nM] | EC50 (hGcgR) [nM] | Structure (SMILES) | EC50 (hGLP-1R [1]; [5]) [nM] | EC50 (hGIPR [2]; [5]) [nM] | EC50 (hGcgR; [5]) [nM] |
| --- | --- | --- | --- | --- | --- | --- | --- | --- | --- |
| 549 | 19.6 | 37.8 |  |  |  | CC[C@H](C)[C@H](NC(=O)[C@H](Cc1ccccc1)NC(=O)[C@H](CCCN)NC(=O)C(C)(C)NC(=O)[C@H](CCC(N)=O)NC(=O)[C@H](C)NC(=O)[C@H](CCCCNC(=O)COCCOCCNC(=O)CC[C@H](NC(=O)CCCCCCCCCCCCCCCCC(=O)O)C(=O)O)NC(=O)[C@H](CCCN)NC(=O)[C@H](CC(=O)O)NC(=O)[C@H](CC(C)C)NC(=O)[C@H](CC(C)C)NC(=O)[C@H](CO)NC(=O)[C@](C)(CO)NC(=O)[C@H](Cc1ccc(O)cc1)NC(=O)[C@H](CC(=O)O)NC(=O)[C@H](CO)NC(=O)[C@@H](NC(=O)[C@](C)(Cc1ccccc1)NC(=O)[C@@H](NC(=O)CNC(=O)[C@H](CCC(N)=O)NC(=O)C(C)(C)NC(=O)[C@@H](N)Cc1ccc(O)cc1)[C@@H](C)O)[C@@H](C)O)C(=O)N[C@H](CCC(=O)O)C(=O)N[C@@](C)(Cc1ccc(O)cc1)C(=O)N[C@@H](CC(C)C)C(=O)N[C@@H](CC(C)C)C(=O)N[C@@H](CCC(=O)O)C(=O)NCC(=O)NCC(=O)N1CCC[C@H]1C(=O)N[C@@H](CO)C(=O)N[C@@H](CO)C(=O)NCC(=O)N[C@@H](CCC(=O)O)C(=O)N1CCC[C@H]1C(=O)N1CCC[C@H]1C(=O)N1CCC[C@H]1C(=O)N[C@@H](CCC(=O)O)C(N)=O [Example 390] (H-Y[Aib]QGT[αMeF]TSDY[αMeS]SLLD[Orn]K([AEEA-γGlu-C18 diacid])AQ[Aib][Orn]FI[dE][αMeY]LLEGGPSSGEPPPE-NH2) | 0.134 | 0.122 | 3.08 |
| 808 | 34.4 | 11.5 | 0.199 | 0.0298 | 3.04 | CC[C@H](C)[C@H](NC(=O)[C@H](Cc1ccccc1)NC(=O)[C@H](CCCN)NC(=O)C(C)(C)NC(=O)[C@H](CCC(N)=O)NC(=O)[C@H](C)NC(=O)[C@H](CCCCNC(=O)COCCOCCNC(=O)CC[C@H](NC(=O)CCCCCCCCCCCCCCCCC(=O)O)C(=O)O)NC(=O)[C@H](CCCN)NC(=O)[C@H](CC(=O)O)NC(=O)[C@H](CC(C)C)NC(=O)[C@](C)(CC(C)C)NC(=O)[C@@H](NC(=O)[C@](C)(CO)NC(=O)[C@H](Cc1ccc(O)cc1)NC(=O)[C@H](CC(=O)O)NC(=O)[C@H](CO)NC(=O)[C@@H](NC(=O)[C@](C)(Cc1ccccc1)NC(=O)[C@@H](NC(=O)CNC(=O)[C@H](CCC(N)=O)NC(=O)C(C)(C)NC(=O)[C@@H](N)Cc1ccc(O)cc1)[C@@H](C)O)[C@@H](C)O)[C@@H](C)CC)C(=O)N[C@H](CCC(=O)O)C(=O)N[C@@H](Cc1ccc(O)cc1)C(=O)N[C@@H](CC(C)C)C(=O)N[C@@H](CC(C)C)C(=O)N[C@@H](CCC(=O)O)C(=O)NCC(=O)NCC(=O)N1CCC[C@H]1C(=O)N[C@@H](CO)C(=O)N[C@@H](CO)C(=O)NCC(=O)N[C@@H](CCC(=O)O)C(=O)N1CCC[C@H]1C(=O)N1CCC[C@H]1C(=O)N1CCC[C@H]1C(=O)N[C@@H](CCC(=O)O)C(N)=O [Example 391] (H-Y[Aib]QGT[αMeF]TSDY[αMeS]I[αMeL]LD[Orn]K([AEEA-γGlu-C18 diacid])AQ[Aib][Orn]FI[dE]YLLEGGPSSGEPPPE-NH2) |  |  |  |
